Measured values: article PMC5057115, “Cathelicidins in the Tasmanian devil (Sarcophilus harrisii)” (Scientific Reports, 2016)
Where no end group is shown, it is not given here.

How the values were obtained:
[1] = tested on: E. coli; format: cell-based, Escherichia coli; settings: broth microdilution (CLSI), 64 to 0.125 μg/mL, 24 h at 35 °C; human clinical isolate
Method: (§1) Tissue expression of devil cathelicidin prepropeptides was determined by real-time PCR on a range of secretory, immune, reproductive, gastrointestinal and respiratory tissues, as well as BLAST searches of the milk transcriptome. Opportunistic tissue samples for real-time PCR were collected from Taronga Zoo (Sydney) from devils which were subject to euthanasia due to old age and advanced disease. The mature peptides of all six devil cathelicidins were synthesised by ChinaPeptides Co. Ltd. and their antimicrobial activity against bacterial and fungal pathogens determined by broth microdilution susceptibility assay according to clinical laboratory standards institute guidelines. Antimicrobial activity was expressed as minimum inhibitory concentration (MIC). Cytotoxicity was assessed in the human cell line A549 and haemolytic activity determined against human blood. Statistical significance of peptide effect on cell survival in comparison to the untreated control was calculated using a one sample t-test. […]
(§2) Two antibiotics, ampicillin and tetracycline, were included as a positive control for bacteria, and the antifungal drug fluconazole for fungi. […] Colonies were resuspended in saline and the OD530 measured with a McFarland reader. […] Assays Antimicrobial activity was expressed as minimum inhibitory concentration (MIC), which was defined as the lowest concentration of cathelicidin preventing visible growth, relative to the negative control. […]
(§3) DMEM and positive control of dimethylsulfoxide (DMSO) (1%) were also included. Following incubation for a further 24 hours, cell viability was determined using alamar blue (Invitrogen) which was added to each well. The plates were incubated for 24 hours, then the absorption measured at 570nm and 620nm using the Victor 3 multilabel plate reader (PerkinElmer). […] To x i city of cathelicidins was calculated according to Invitrogen recommendations and expressed as percentage cell survival compared to the untreated growth control. […]
(§4) Haemolytic activity was assessed using 10mL of human blood collected into potassium -ED T A […]

[2] = tested on: P. aeruginosa ATCC 27853; experiment: microbe, parasite or virus in culture; format: cell-based, Pseudomonas aeruginosa; settings: ATCC 27853, 24 h
Method: as §1, with “t-test. Pouch microbiome analysis was performed on swabs from the pouch of lactating and non-lactating devils to detect changes in microbe populations. Pouch swab collection was carried out in accordance with the Save the Tasmanian Devil Program and was approved by the Animal Ethics Committee of the University of Sydney (permit number 681).” for “t-test.”
(§5) base (YNB) for fungi, from a concentration of 64μg/mL to 0.125μg/mL in a final volume of 100 μL .
(§6) Two antibiotics, ampicillin and tetracycline, were included as a positive control for bacteria, and the antifungal drug fluconazole for fungi. A well containing cells and media only was used as a “no drug” control to ensure that cultures grew normally. Bacteria were subcultured on Mueller Hinton agar (MHA) or Sheep blood agar (BA) for 24 hours at 35 °C for Staphylococcus spp., Pseudomonas spp., Enterococcus spp. and E.coli, with 5% CO2 for Streptococcus spp., K.pneumoniae, P.multocida, L.monocytogenes and N.asteroides. Similarly, fungi were subcultured on Sabouraud agar (SAB) at 35 °C for 24 hours prior to the test. Colonies were resuspended in saline and the OD530 measured with a McFarland reader. If necessary the suspension was diluted to 0.45-0.55 McFarland units with saline. […] Assays Antimicrobial activity was expressed as minimum inhibitory concentration (MIC), which was defined as the lowest concentration of cathelicidin preventing visible growth, relative to the negative control. […]
(§7) 570nm and 620nm using the Victor 3 multilabel plate reader (PerkinElmer). […] To x i city of cathelicidins was calculated according to Invitrogen recommendations and expressed as percentage cell survival compared to the untreated growth control. […]
(§8) Haemolytic activity was assessed using 10mL of human blood collected into potassium -ED T A vacutainers (BD). […]

[3] = tested on: E. faecalis ATCC 29212; experiment: microbe, parasite or virus in culture; format: cell-based, Enterococcus faecalis; settings: ATCC 29212, 24 h
Method: as §1, with “t-test. Pouch microbiome analysis was performed on swabs from the pouch of lactating and non-lactating devils to detect changes in microbe populations. Pouch swab collection was carried out in accordance with the Save the Tasmanian Devil Program and was approved by the Animal Ethics Committee of the University of Sydney (permit number 681).” for “t-test.”
as §5, §6, §7, §8

[4] = tested on: E. faecalis; format: cell-based, Enterococcus faecalis; settings: broth microdilution (CLSI), 64 to 0.125 μg/mL, 24 h at 35 °C; human clinical isolate
Method: as §1, with “t-test. Pouch microbiome analysis was performed on swabs from the pouch of lactating and non-lactating devils to detect changes in microbe populations. Pouch swab collection was carried out in accordance with the Save the Tasmanian Devil Program and was approved by the Animal Ethics Committee of the University of Sydney (permit number 681).” for “t-test.”
as §5
(§9) Two antibiotics, ampicillin and tetracycline, were included as a positive control for bacteria, and the antifungal drug fluconazole for fungi. A well containing cells and media only was used as a “no drug” control to ensure that cultures grew normally. Bacteria were subcultured on Mueller Hinton agar (MHA) or Sheep blood agar (BA) for 24 hours at 35 °C for Staphylococcus spp., Pseudomonas spp., Enterococcus spp. and E.coli, with 5% CO2 for Streptococcus spp., K.pneumoniae, P.multocida, L.monocytogenes and N.asteroides. Similarly, fungi were subcultured on Sabouraud agar (SAB) at 35 °C for 24 hours prior to the test. Colonies were resuspended in saline and the OD530 measured with a McFarland reader. If necessary the suspension was diluted to 0.45-0.55 McFarland units with saline. Following a 1:150 dilution for bacteria and twostep dilution for fungi (1:50, 1:20), 100 μL of microorganisms (1x106 – 5 x10^5 cells/mL) were pipetted into wells 2-12, the first well acting as a negative control. Colony counts were performed using a 1:1000 dilution for bacteria and 1:10 for fungi spread onto MHA/BA or SAB plates respectively. The 96 well microdilution and agar plates were incubated for 24 hours at 35 °C (Escherichia coli, Staphylococcus spp., Enterococcus spp. and Pseudomonas spp.), with 5% CO2 (Streptococcus spp. Pasteurella multocida, Klebsiella pneumoniae, Listeria monocytogenes a nd Nocardia asteroids) for bacteria, and 35 °C for 48 hours (Candida spp .) or 72 hours (Cryptococcus spp.) for fungi. Assays Antimicrobial activity was expressed as minimum inhibitory concentration (MIC), which was defined as the lowest concentration of cathelicidin preventing visible growth, relative to the negative control. […]
(§10) DMEM and positive control of dimethylsulfoxide (DMSO) (1%) were also included. Following incubation for a further 24 hours, cell viability was determined using alamar blue (Invitrogen) which was added to each well. The plates were incubated for 24 hours, then the absorption measured at 570nm and 620nm using the Victor 3 multilabel plate reader (PerkinElmer). The assay was performed on two separate occasions. To x i city of cathelicidins was calculated according to Invitrogen recommendations and expressed as percentage cell survival compared to the untreated growth control. A significant difference between cathelicidin treated and control cell survival was tested using a o ne sample t-test (p<0.05).
as §4
(§11) vacutainers (BD). […]

[5] = tested on: Vancomycin resistant E. faecalis (VREF); format: cell-based, Enterococcus faecalis; settings: broth microdilution (CLSI), 64 to 0.125 μg/mL, 24 h at 35 °C, human clinical isolate
Method: as §1, with “t-test. Pouch microbiome analysis was performed on swabs from the pouch of lactating and non-lactating devils to detect changes in microbe populations. Pouch swab collection was carried out in accordance with the Save the Tasmanian Devil Program and was approved by the Animal Ethics Committee of the University of Sydney (permit number 681).” for “t-test.”
as §5, §9, §10, §4, §11

[6] = tested on: C. albicans; format: cell-based; settings: broth microdilution (CLSI), YNB, 64 to 0.125 μg/mL, 48 hours at 35 °C; human clinical isolate
Method: as §1, with “t-test. Pouch microbiome analysis was performed on swabs from the pouch of lactating and non-lactating devils to detect changes in microbe populations. Pouch swab collection was carried out in accordance with the Save the Tasmanian Devil Program and was approved by the Animal Ethics Committee of the University of Sydney (permit number 681).” for “t-test.”
as §5, §9, §10, §4, §11

[7] = tested on: C. glabrata; format: cell-based; settings: broth microdilution (CLSI), YNB, 64 to 0.125 μg/mL, 48 hours at 35 °C; human clinical isolate
Method: as §1, with “t-test. Pouch microbiome analysis was performed on swabs from the pouch of lactating and non-lactating devils to detect changes in microbe populations. Pouch swab collection was carried out in accordance with the Save the Tasmanian Devil Program and was approved by the Animal Ethics Committee of the University of Sydney (permit number 681).” for “t-test.”
as §5, §9, §10, §4, §11

[8] = tested on: S. agalactiae; format: cell-based; settings: broth microdilution (CLSI), 64 to 0.125 μg/mL, 24 h at 35 °C with 5% CO2; human clinical isolate
Method: as §1, with “t-test. Pouch microbiome analysis was performed on swabs from the pouch of lactating and non-lactating devils to detect changes in microbe populations. Pouch swab collection was carried out in accordance with the Save the Tasmanian Devil Program and was approved by the Animal Ethics Committee of the University of Sydney (permit number 681).” for “t-test.”
as §5, §9, §10, §4, §11

[9] = tested on: S. anginosus; format: cell-based; settings: broth microdilution (CLSI), 64 to 0.125 μg/mL, 24 h at 35 °C with 5% CO2; human clinical isolate
Method: as §1, with “t-test. Pouch microbiome analysis was performed on swabs from the pouch of lactating and non-lactating devils to detect changes in microbe populations. Pouch swab collection was carried out in accordance with the Save the Tasmanian Devil Program and was approved by the Animal Ethics Committee of the University of Sydney (permit number 681).” for “t-test.”
as §5, §9, §10, §4, §11

[10] = tested on: S. oralis/mitis group; format: cell-based; settings: broth microdilution (CLSI), 64 to 0.125 μg/mL, 24 h at 35 °C with 5% CO2; human clinical isolate
Method: as §1, with “t-test. Pouch microbiome analysis was performed on swabs from the pouch of lactating and non-lactating devils to detect changes in microbe populations. Pouch swab collection was carried out in accordance with the Save the Tasmanian Devil Program and was approved by the Animal Ethics Committee of the University of Sydney (permit number 681).” for “t-test.”
as §5, §9, §10, §4, §11

[11] = tested on: S. pyogenes ATCC 19615; format: cell-based; settings: broth microdilution (CLSI), 64 to 0.125 μg/mL, 24 h at 35 °C with 5% CO2; ATCC strain
Method: as §1, with “t-test. Pouch microbiome analysis was performed on swabs from the pouch of lactating and non-lactating devils to detect changes in microbe populations. Pouch swab collection was carried out in accordance with the Save the Tasmanian Devil Program and was approved by the Animal Ethics Committee of the University of Sydney (permit number 681).” for “t-test.”
as §5, §9, §10, §4, §11

[12] = tested on: S. salivarius; format: cell-based; settings: broth microdilution (CLSI), 64 to 0.125 μg/mL, 24 h at 35 °C with 5% CO2; human clinical isolate
Method: as §1, with “t-test. Pouch microbiome analysis was performed on swabs from the pouch of lactating and non-lactating devils to detect changes in microbe populations. Pouch swab collection was carried out in accordance with the Save the Tasmanian Devil Program and was approved by the Animal Ethics Committee of the University of Sydney (permit number 681).” for “t-test.”
as §5, §9, §10, §4, §11

[13] = tested on: K. pneumoniae*; format: cell-based, Klebsiella pneumoniae; settings: broth microdilution (CLSI), 64 to 0.125 μg/mL, 24 h at 35 °C with 5% CO2; animal isolate
Method: as §1, §2, §3, §4

[14] = tested on: L. monocytogenes*; format: cell-based, Listeria monocytogenes; settings: broth microdilution (CLSI), 64 to 0.125 μg/mL, 24 h at 35 °C with 5% CO2; animal isolate
Method: as §1, with “t-test. Pouch microbiome analysis was performed on swabs from the pouch of lactating and non-lactating devils to detect changes in microbe populations.” for “t-test.”
as §2, §7, §8

[15] = tested on: C. krusei ATCC 6258; format: cell-based, Candida krusei; settings: broth microdilution (CLSI), YNB, 64 to 0.125 μg/mL, 48 hours at 35 °C; ATCC strain
Method: as §1, §2, §3, §4

[16] = tested on: C. gattii; format: cell-based, Cryptococcus gattii; settings: broth microdilution (CLSI), YNB, 64 to 0.125 μg/mL, 72 hours at 35 °C; human clinical isolate
Method: as §1, §2, §3, §4

Sequence	MIC [1] [µg/mL]	MIC [2] [µg/mL]	MIC [3] [µg/mL]	MIC [4] [µg/mL]	MIC [5] [µg/mL]	MIC [6] [µg/mL]	MIC [7] [µg/mL]	MIC [8] [µg/mL]	MIC [9] [µg/mL]	MIC [10] [µg/mL]	MIC [11] [µg/mL]	MIC [12] [µg/mL]	MIC [13] [µg/mL]	MIC [14] [µg/mL]	MIC [15] [µg/mL]	MIC [16] [µg/mL]
KRIGLIRLIGKILRGLRRLG [Saha-CATH5]	32	>64	>64	>64	32	>64	>64	64	32	64	32	>64	>64	>64	64	64
KRIRFFERIRDRLRDLGNRIKNRIRDFFS [Saha-CATH6]	>64	>64	>64	>64	64	>64	>64	>64	64	64	64	>64	>64	>64	64	64
KRMGIFHLFWAGLRKLGNLIKNKIQQGIENFLG [Saha-CATH3]	>64	>64	>64	>64	>64	>64	>64	>64	>64	>64	>64	>64	>64	>64	>64	>64
